According to US10752900B2, “Oligonucleotides for modulating gene expression and uses thereof” (BIOGENERA S.P.A., priority 2012, dated 2020):

Experiments:
MYC [1] = test: QT-PCR, MYC mRNA in H82 cells; assay type: cell-based; conditions: Table 11, 2.5 μM
Protocol: (§1) For the purpose of assessing the ability of the oligonucleotides of the present invention to modulate the expression of the target genes, their ability to reduce the quantity of messenger RNA was analyzed using the Real-Time PCR technique.
(§2) The cells were treated with the oligonucleotides, adding FBS up to 4% 6 hours after administration of the same. After 24 hours the total RNA was extracted from each well and purified using the RNeasy Mini Kit (QIAGEN).
(§3) As a control, use was made of the same cell lines as listed above treated with sterile water instead of oligonucleotides. Each RNA sample was quantified (in duplicate) using a NanoDrop ND-1000 spectrophotometer (NanoDrop Technologies). The first strand of cDNA was produced using the cDNA Synthesis Kit for RT-PCR (Roche). For the cDNA synthesis reaction a total of 1 μg of RNA was used. For the real-time PCR, 10 ng of cDNA in a final volume of 20 μl was used with SYBR Green Master Mix 2× (Applied Biosystems) (3 identical experiments were conducted in triplicate). Two housekeeping genes were used as positive controls: GAPDH and beta-actin (ACTB).
(§4) The conditions of the QT-PCR reaction were: 10 min at 95° C., 20 sec at 95° C., and 30 sec at 60° C., for 50 cycles.
(§5) The oligonucleotides were tested in vitro (at a concentration of 2.5 μM) to determine their ability to inhibit the transcription of the gene they are directed against by measuring the levels of the gene messenger in cellular models in which the gene of interest is overexpressed. The methods used are the ones described in example 1.
(§6) In particular, SEQ ID NO: 66-69 (directed against MYCN) were tested in vitro in the Kelly and H69 cell lines; SEQ ID NO: 70-74 (directed against MYC) were tested in vitro in the H82 and RD cell lines, SEQ ID NO: 75, 76 (directed against BIRC5) were tested in vitro in the Kelly cell line, SEQ ID NO: 77-79 (directed against ALK) were tested in vitro in the Kelly cell line, SEQ ID NO: 80-82 (directed against BCL2) were tested in vitro in the Kelly cell line and SEQ ID NO: 83, 84 (directed against PLK4) were tested in vitro in the Kelly cell line.
(§7) The ability of the tested oligonucleotides to inhibit the messenger of the gene of interest was measured and the proliferative capacity of the cells following administration of the oligonucleotides was also assessed.

H82 = test: Cellular proliferation, H82 cells; assay type: cell-based; conditions: Table 11, MYC-directed PNA, 2.5 μM
Protocol: (§8) For this purpose 5×10^3 cells per well were seeded into 96-well cell culture plates (experiments conducted in triplicate) with 100 μl of OPTI-MEM (GIBCO BRL) medium containing 4% FBS and 2 mM of L-glutammine.
(§9) Cell viability was assessed by means of an ATP-Lite assay (Luminescence ATP Detection Assay System, PerkinElmer) and is reported as the ratio between the average signal of the treated wells compared to the average value of the wells of untreated control cells. The cells were processed following the instructions provided with the kit.
as §5, §6, §7

MYC [2] = test: QT-PCR, MYC mRNA in RD cells; assay type: cell-based; conditions: Table 11, 2.5 μM
Protocol: as §1, §2, §3, §4, §5, §6, §7

RD = test: Cellular proliferation, RD cells; assay type: cell-based; conditions: Table 11, MYC-directed PNA, 2.5 μM
Protocol: as §8, §9, §5, §6, §7

Kelly cells = test: Cellular proliferation assay (ATP-Lite), Kelly cells; assay type: cell-based, human; conditions: 2.5 μM
Protocol: For the purpose of assessing the gene modulation ability of the oligonucleotides of the present invention, the effect of their administration on cell viability was determined.
as §8
The PNA oligonucleotides were administered at different concentrations (1 μM-2.5 μM-5 μM-10 μM) in order to observe a dose-effect relationship.
As regards all the other oligonucleotides, the concentrations at which they administered are listed in the paragraph:
The viability of the treated cells was determined at 48, 72, 96 and 168 hours after treatment.
as §9
The assays were performed on the same cell lines used to determine the levels of the MYCN gene messenger and listed in the paragraph: Treatments with Oligonucleotides—QT-PCR.
As far as the PNA oligonucleotides are concerned, the results regarding their ability to inhibit the transcription of the MYCN gene and proliferation of Kelly cells are shown in Table 1.
as §7

BIRC5 = test: QT-PCR, BIRC5 mRNA in Kelly cells; assay type: cell-based, human; conditions: Table 11, 2.5 μM
Protocol: as §1, §2
as §3, with “(ACTB). […]” for “(ACTB).”
as §7

ALK = test: QT-PCR, ALK mRNA in Kelly cells; assay type: cell-based, human; conditions: Table 11, 2.5 μM
Protocol: as §1, §2, §3, §4
as §5, with “1. […]” for “1.”
as §7

BCL2 = test: QT-PCR, BCL2 mRNA in Kelly cells; assay type: cell-based, human; conditions: Table 11, 2.5 μM
Protocol: as §1, §2, §3, §4
as §5, with “1. […]” for “1.”
as §7

PLK4 = test: QT-PCR, PLK4 mRNA in Kelly cells; assay type: cell-based, human; conditions: Table 11; PLKA4, Kelly cells; 2.5 μM
Protocol: as §1, §2
as §3, with “(ACTB). […]” for “(ACTB).”
as §7

| Substance | mRNA inhibit. (%) (MYC [1]) | Cell Prolif. (%) (H82) | mRNA inhibit. (%) (MYC [2]) | Cell Prolif. (%) (RD) | also measured |
| --- | --- | --- | --- | --- | --- |
| SEQ ID NO: 70: PNA CTCAGAGGCTTGGCGG directed against MYC (all peptide nucleic acid (PNA); antigene PNA) | 43% | 79% | 34% | 73% | – |
| SEQ ID NO: 71: PNA GCGGCCGGCTAGGGTG directed against MYC (all peptide nucleic acid (PNA); antigene PNA) | 46% | 75% | 42% | 65% | – |
| SEQ ID NO: 72: PNA CGGCCGGCTAGGGTGG directed against MYC (all peptide nucleic acid (PNA); antigene PNA) | 52% | 64% | 58% | 53% | – |
| SEQ ID NO: 73: PNA CGACGGCGGTGGCGGG directed against MYC (all peptide nucleic acid (PNA); antigene PNA) | 56% | 65% | 59% | 51% | – |
| SEQ ID NO: 74: PNA GGACGGGGGCGGTGGA directed against MYC (all peptide nucleic acid (PNA); antigene PNA) | 61% | 61% | 64% | 47% | – |
| SEQ ID NO: 75: PNA GCGGCGGCATGGGTGC directed against BIRC5 (all peptide nucleic acid (PNA); antigene PNA) | – | – | – | – | Cell Prolif. (%) (Kelly cells; Table 11, BIRC5-directed PNA): 43%; mRNA inhibit. (%) (BIRC5): 69% |
| SEQ ID NO: 76: PNA GGCGGCGGCATGGGTG directed against BIRC5 (all peptide nucleic acid (PNA); antigene PNA) | – | – | – | – | Cell Prolif. (%) (Kelly cells; Table 11, BIRC5-directed PNA): 35%; mRNA inhibit. (%) (BIRC5): 78% |
| SEQ ID NO: 77: PNA GCAGGAGAGGACGGTA directed against ALK (all peptide nucleic acid (PNA); antigene PNA) | – | – | – | – | Cell Prolif. (%) (Kelly cells; Table 11, ALK-directed PNA): 55%; mRNA inhibit. (%) (ALK): 57% |
| SEQ ID NO: 78: PNA CAGGAGAGGACGGTAC directed against ALK (all peptide nucleic acid (PNA); antigene PNA) | – | – | – | – | Cell Prolif. (%) (Kelly cells; Table 11, ALK-directed PNA): 46%; mRNA inhibit. (%) (ALK): 68% |
| SEQ ID NO: 79: PNA GGCAGGAGAGGACGGT directed against ALK (all peptide nucleic acid (PNA); antigene PNA) | – | – | – | – | Cell Prolif. (%) (Kelly cells; Table 11, ALK-directed PNA): 39%; mRNA inhibit. (%) (ALK): 79% |
| SEQ ID NO: 80: PNA GGATGGCGCACGCTGG directed against BCL2 (all peptide nucleic acid (PNA); antigene PNA) | – | – | – | – | Cell Prolif. (%) (Kelly cells; Table 11, BCL2-directed PNA): 62%; mRNA inhibit. (%) (BCL2): 59% |
| SEQ ID NO: 81: PNA GGGAAGGATGGCGCAC directed against BCL2 (all peptide nucleic acid (PNA); antigene PNA) | – | – | – | – | Cell Prolif. (%) (Kelly cells; Table 11, BCL2-directed PNA): 58%; mRNA inhibit. (%) (BCL2): 62% |
| SEQ ID NO: 82: PNA CCACGGTGGTGGAGGA directed against BCL2 (all peptide nucleic acid (PNA); antigene PNA) | – | – | – | – | Cell Prolif. (%) (Kelly cells; Table 11, BCL2-directed PNA): 55%; mRNA inhibit. (%) (BCL2): 68% |
| SEQ ID NO: 83: PNA ACGGCAAGCGGCGGGA directed against PLK4 (all peptide nucleic acid (PNA); antigene PNA) | – | – | – | – | Cell Prolif. (%) (Kelly cells; Table 11, PLK4-directed PNA): 59%; mRNA inhibit. (%) (PLK4): 62% |
| SEQ ID NO: 84: PNA GGACGGCAAGCGGCGG directed against PLK4 (all peptide nucleic acid (PNA); antigene PNA) | – | – | – | – | Cell Prolif. (%) (Kelly cells; Table 11, PLK4-directed PNA): 49%; mRNA inhibit. (%) (PLK4): 74% |
